Results on 2 substances are retold here after patent US20030194738A1, “Antisense oligonucleotide compositions and methods for the modulation of activating protein 1” (priority 1997, published 2003).

Where “and” joins values, the source holds several entries; their conditions need not be identical. Equal entries are not always repeated. Entries after “also recorded” stand apart in the source; their conditions may differ.

The subject of data set [1] is rat aortic smooth muscle (RASM) cells. The experiment in a line: Cell cycle progression of PDGF-stimulated rat aortic smooth muscle cells, FACS analysis. The data set is classed as cell-based. The settings on record: 200 nM; 24 hours after PDGF. The method, then:
(§1) In order to evaluate the effect of AP-1 modulation on cell cycle progression, the following study was performed. Cultured rat aortic smooth muscle (RASM) cells are stimulated to proliferate upon contact with platelet-derived growth factor (PDGF). Primary RASM cells (passages 6-8) were synchronized by incubation for 48 hours in DMEM containing 0.1% FBS. The cells were treated for 4 hours with 200 nM ISIS 12633 (SEQ ID NO:78), a 20-mer phosphorothioate oligonucleotide complementary to a portion of the 3′ UTR of rat c-jun mRNA, or ISIS 12898 (SEQ ID NO:92), a scrambled control of ISIS 12633. Cells were then contacted with PDGF (10 ng/ml) (R&D Systems, Minneapolis, Minn.), and cell cycle progression was assessed by FACS analysis 24 hours later. At 2 and 6 hours after exposure to PDGF, c-jun mRNA levels were markedly less in ISIS 12633-treated cells as compared to untreated cells or cells treated with ISIS 12898.

Data set [2] deals with rat c-jun mRNA. In words: Rat c-jun mRNA expression in rat A10 cells. It is filed as cell-based. The method, then:
Tables 13 and 14 show the sequences of oligonucleotides designed to modulate rat c-jun and c-fos mRNA expression, respectively. For the nucleotide sequence of the rat c-jun gene, see Genbank accession No. X17163/RSJUNAP1 and Saaki et al., Cancer Res., 1989, 49:5633. The nucleotide sequence of the rat c-fos gene is described in Genbank accession No. X06769/RNCFOSR and Curran et al., Oncogene, 1987, 2:79. Oligonucleotide activities were evaluated as described infra in Example 2 et seq. with the exception that rat A10 cells (available from, inter alia, the American Type Culture Collection, Rockville, Md., as ATCC No. CRL-1476) were used instead of human A549 cells. Due to the high degree of homology between human and rat c-jun and c-fos nucleotide sequences, probes derived from the human genes were used to detect the rat messages.
Another preferred oligonucleotide targeted to rat AP-1 subunits is ISIS 12635 (SEQ ID NO:80).

Data set [3] concerns c-jun mRNA. In words: c-jun mRNA levels in PDGF-stimulated rat aortic smooth muscle cells. It is filed as cell-based. The settings on record: 200 nM for 4 hours; 2 and 6 hours after exposure to PDGF (10 ng/ml); versus untreated or ISIS 12898-treated cells. The method, then: as §1
For data set [4], the system named is c-fos mRNA. In words: c-fos mRNA expression in TPA-induced A549 cells, Northern blotting. The settings on record: TPA induction, 1 hour. The data set is classed as cell-based, human.
Data set [5] has as its system c-fos mRNA. The data set is described as above. The data set is classed as cell-based, human. The method, then:
(§2) In order to evaluate the activity of potential c-fos and c-jun modulating oligonucleotides, A549 cells were grown in T-75 flasks until 80-90% confluent. (Cell line A549 is available from, inter alia, the American Type Culture Collection, Rockville, Md., as ATCC No. CCL-185.) At this time, the cells were washed twice with 10 mL of media (DMEM), followed by the addition of 5 mL of DMEM containing 20 μg/mL of LIPOFECTIN™ (i.e., DOTMA/DOPE (N-[1-(2,3-dioleyloxy)propyl]-N,N,N-[…] chloride/dioleoylphosphatidyl ethanolamine)). The oligonucleotides were added from a 10 μM stock solution to a final concentration of 400 nM, and the two solutions were mixed by swirling the flasks. After 4 hours at 37° C., the medium was replaced with DMEM containing 10% serum. At this point, 1 μM 12-O-tetradecanoylphorbol 13-acetate (TPA) was added to induce expression of c-fos and c-jun. Cells were extracted in guanidinium one hour later, and the c-fos and c-jun mRNA expression was determined by Northern blotting. Probes for human c-jun and c-fos were PCR products prepared using primers based on the published sequences thereof (respectively, Hattori et al., Proc. Natl. Acad. Sci. U.S.A., 1988, 85:9148, and Van Straaten et al., Proc. Natl. Acad. Sci. U.S.A., 1983, 80:3183).
Finally, it can also be seen from Table 5 that neither active oligonucleotide has any detectable effect on mRNA levels of the other active oligonucleotide's target.
Once oligonucleotides that modulate c-Fos or c-Jun are identified, derivative or modified oligonucleotides having the same sequence thereas are prepared. In order to evaluate the effect of chemical modifications to oligonucleotides to c-fos and c-jun, the modified oligonucleotides described in Tables 8 and 9 were prepared. The effect of the c-fos-targeted oligonucleotides on c-fos RNA levels were evaluated as described in Examples 2-3. […] Other modified oligonucleotides of the invention are evaluated in like fashion. In order to evaluate the effect of PNA antisense analogs, the PNA analogs of the invention are introduced into appropriate cell lines by microinjection according to the method of Hanvey et al. (Science, 1992, 258:1481). Intracellular delivery of PNA analogs is confirmed by the use of a fluorescently tagged PNA antisense analog conjugate such as, e.g., ISIS 14240.

Data set [6] relates to c-jun mRNA. In words: c-jun mRNA expression in TPA-induced A549 cells, Northern blotting. It is filed as cell-based, human. The settings on record: A549 cells. The method, then: as §2, with “The oligonucleotides were added from a 10 μM stock solution to a final concentration of 400 nM, and the two solutions were mixed by swirling the flasks.” left out
The subject of data set [7] is A549 tumors. In words: Growth of A549 tumor fragments implanted subcutaneously in nude mice. The data set is classed as in vivo. The settings on record: 25 mg/kg daily i.v. for three weeks; for Mean Tumor Weight: nude mice. As for the experimental part: In order to evaluate the in vivo activity of c-fos oligonucleotides, 25 mg of tumor fragments of A549 tumors were implanted subcutaneously in nude mice (n=6). ISIS 10639 was administered daily, i.v., for three weeks. The oligonucleotide dosage was 25 mg/kg. […] By day 34, saline-treated tumors were 0.56±0.12 g by weight, while tumors treated with ISIS 10639 were 0.31±0.1 g by weight.

The test system of data set [8] is c-Fos protein. In words: c-Fos protein levels in TPA-induced A549 cells, immunoblot. It is filed as cell-based, human. The settings on record: TPA (1 uM) for three hours. The method, then:
The ability of the c-fos active oligonucleotide ISIS 10639 to reduce expression of the c-Fos protein was examined as follows. A549 cells were treated with oligonucleotides as in Examples 2-3, except that induction of c-Fos was effected by treatment of cells with TPA (1 uM) for three hours. At this time, whole cell protein was extracted in SDS (sodium dodecyl sulfate) buffer. Samples of extracts were electrophoresed, transferred to nitrocellulose filters which were immunoblotted using a c-Fos-specific antibody (Santa Cruz AB, Santa Cruz, Calif.).

For “TTT-TCT-TCC-ACT-GCC-CCT-CA (TTTTCTTCCACTGCCCCTCA; DNA, all phosphorothioate, methylation of C not given here) [ISIS 12633]”, the “proportion of cells in the G2/M interface (in words)” value in data set [1] is reported as “significant decrease”. Besides, in data set [2], the “modulation of rat c-jun (in words)” value is “active modulator”. Further, the “c-jun mRNA levels (in words)” value in data set [3] is “markedly less”.

For the substance “AAG-TCC-TTG-AGG-CCC-ACA-GC (AAGTCCTTGAGGCCCACAGC; antisense; all phosphorothioate, sugars by position and methylation of C not given here) [ISIS 10639]”, the “c-fos mRNA LEVELS (% CONTROL)” value was 64 % CONTROL in data set [4] (50 nM oligonucleotide); 46 % CONTROL in data set [4] (100 nM oligonucleotide); 20.5 % CONTROL in data set [4] (200 nM oligonucleotide); 9 % CONTROL in data set [5] (400 nM oligonucleotide, TPA induction, 1 hour, A549 cells). In addition, the “c-fos mRNA % CONTROL” value in data set [5] (400 nM oligonucleotide with LIPOFECTIN, control is TPA induction, at 1 hour, in A549 cells) turned out to be 9 % CONTROL. In data set [5] (400 nM oligonucleotide, TPA-induced A549 cells), the “inhibition of c-fos mRNA expression” value is 91%. In addition, in data set [5] (A549 cells), the “effect on c-fos mRNA levels during TPA induction (in words)” value was “dose-dependent; also recorded: potent and specific inhibition”. For the same substance, in data set [5] (Table 5, TPA - no oligo = 100, basal = 5, A549 cells), the “c-fos (mRNA level, specificity experiment)” value is given as 9. In data set [5] (Table 10, TPA - no oligo = 100, basal = 3, A549 cells), the “c-fos (expression, modified oligonucleotides)” value is reported as 9. In addition, in data set [6], the “effect on c-jun mRNA levels during TPA induction (in words)” value is given as “no detectable effect”. Besides, in data set [6] (Table 5, TPA - no oligo = 100, basal = 23), the “c-jun (mRNA level, specificity experiment)” value was 97. The “tumor growth rate (in words)” value in data set [7] (versus saline) was “substantial reduction”. The “Mean Tumor Weight” value in data set [7] (Day 17) was 0.105 g; in data set [7] (Day 20) it was 0.138 g; in data set [7] (Day 27), 0.225 g; in data set [7] (Day 34, 25 mg/kg), 0.31 ± 0.1 g and 0.310 g. The “c-Fos protein level (in words)” value in data set [8] (A549 cells) is on record as “basal levels”. The “c-Fos (protein level)” value in data set [8] (Table 7, TPA - no oligo = 100, basal = 21) was found to be 19.
